{"source": "paper PMC8536644", "about": "“Enigmatic mechanism of the N-vinylpyrrolidone hepatocarcinogenicity in the rat” (Archives of Toxicology, 2021)", "key": {"rat liver": {"system": "rat liver", "assay": "Glutathione recycling assay (tGSH, GSSG) in liver;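 as to GSSG, group (mean ± SD): Nanomoles per gram liver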;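 as to GSSG, individual animal: Nanomoles per gram liver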;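 as to Mean GSSG concentration: Nanomoles per gram liver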", "type": "in vivo", "details": "for GSH (GSH recycling assay), individual animal / GSSG, individual animal / tGSH, individual animal / GSH (GSH recycling assay), group (mean ± SD) / GSSG, group (mean ± SD) / tGSH, group (mean ± SD): rat liver; for GSH (GSH recycling assay), group (mean ± SD) / GSSG, group (mean ± SD) / tGSH, group (mean ± SD): n = 6", "experimental": "Glutathione recycling assay was adapted from the method described by Gallagher ([1994]) and performed using the 14 000 g supernatant fraction derived from the 5-SSA-treated liver homogenate of the NVP-exposed male Wistar rats as described above under “Non-protein-bound sulfhydryl groups”. The obtained samples were diluted fivefold with the 5% 5-SSA solution.\nFor determination of total glutathione (tGSH, i.e. GSH + GSSG) a GSH control (640 µM in 5% 5-SSA, diluted by a factor of 4 for application in the assay) and a tGSH control (200 µM in 5% 5-SSA, containing 10% GSSG) were treated the same way as the samples. To 5 µL of sample, controls as well as GSH standards (dissolved in 5% 5-SSA solution) 190 µL tGSH master mix, consisting of phosphate/EDTA buffer (125 mM KH2PO4/7 mM EDTA, pH 7.5), 0.4 mM NADPH and 0.5 U/L glutathione reductase suspension, were added. Determinations were performed in triplicates. The reaction was started by adding 5 µL of 24 mM DTNB in methanol. The absorption at λ = 412 nm was measured every 60 s for 5 min.\nFor determination of GSSG a control (20 μM GSSG, 160 μM GSH) was treated the same way as the samples. 125 µL sample, control, GSSG standards and blank, respectively, were combined with 5 µL 2-vinylpyridine (Sigma Aldrich, Steinheim, Germany). 20 µL of […] triethylamine was pipetted to the upper rim of the vessel such that after mixing the pH value was between 7 and 7.5 and reaction was allowed to proceed in the thermomixer at 600 rpm for 1 h at 26 °C in order to derivatize the GSH in the sample. The determination of GSSG was then performed in analogy to the determination of tGSH described above. The absorption at λ = 412 nm was measured every 60 s for 10 min."}, "[1]": {"system": "L5178Y mouse lymphoma cells", "set-up": "method as in MAK [1994]", "details": "ref MAK [1994]; cited from earlier work"}, "mice [2]": {"system": "mice", "set-up": "method as in BASF [1993]", "details": "oral application, ref BASF [1993]; cited from earlier work"}, "estrogen receptor α": {"system": "estrogen receptor α", "set-up": "method as in ToxCast (comptox.epa.gov dashboard)", "details": "ref ToxCast (comptox.epa.gov dashboard); cited from earlier work"}, "CYP1A": {"system": "CYP1A", "assay": "EROD assay, lung microsomes of NVP-treated rats", "type": "in vivo, rat", "details": "after NVP treatment; below the LOD", "experimental": "The alkoxyresorufin dealkylase (AROD) assays were based on the method by Burke et al. ([1994]).\nThe frozen livers and lungs of the NVP-treated male Wistar rats were thawed and washed with isotonic (0.9%) NaCl solution. The tissues were ice-cooled homogenized (1 g tissue: 3 mL 0.25 M saccharose in 1 mM disodium EDTA, pH 7.4) and centrifuged (9000 g, 15 min, 4 °C). The supernatant fraction was centrifuged (100 000 g, 60 min, 4 °C). The resulting supernatant fraction was used for the palmitoyl-CoA-oxidase assay described further down. The pellet was taken up in 150 mM aqueous KCl solution, recentrifuged (100 000 g, 60 min, 4 °C) and the pellet taken up in 1 mL/g liver or 0.5 mL/g lung resuspension buffer (1 mM GSH, 1 mM disodium EDTA, 4 mM MgCl2, 0.1 M KH2PO4, pH 7.5 and 4% glycerol). […]\nFor determination of the enzyme activities in triplicates, 85 µL master mix (100 mM TrisHCl pH 7.5, 2 mM 5’AMP, 5 mM G-6-P, 10 U G-6-P-DH, 10 mM Dicumarol, 10 mM MgCl2, either 2 µM EROD or 10 µM PROD or 5 µM BROD) was added to 10 µL microsomal fraction (1 mg protein/mL). […] The activity was determined by measuring the increase of the fluorescence (excitation at 550 nm, emission at 585 nm) due to resorufin formation compared with resorufin standards, which had been prepared by dissolving tenfold concentrated solutions in DMSO, which were then diluted tenfold in 100 mM TrisHCl pH 7.5."}, "mice [3]": {"system": "mice", "set-up": "method as in Klimisch et al. [1997b]", "details": "inhalation, ref Klimisch et al. [1997b]; cited from earlier work"}, "[4]": {"set-up": "method as in ToxCast (comptox.epa.gov dashboard)", "details": "ref ToxCast (comptox.epa.gov dashboard); cited from earlier work"}, "rat lung cells": {"system": "rat lung cells", "assay": "Trypan Blue viability of the single cell suspension, lung", "type": "in vivo", "details": "lung, 5 days, individual animals", "description": "The organ parts (see above) were washed in mincing buffer (50 mM EDTA in HBSS [without Ca^2+ and Mg^2+] pH 7.5: DMSO 9:1 (v/v), the latter added shortly before use, stored at 4 °C), cut into 1 to 2-mm pieces in ice-cold mincing buffer and transferred to a cell sieve with 70-µm pores. The viability of the cell suspension was evaluated by the Trypan Blue Assay (Strober [2001])."}, "[5]": {"details": "5 ppm NVP inhalation, animals 7-12"}, "[6]": {"details": "10 ppm NVP inhalation, animals 13-18"}, "[7]": {"details": "20 ppm NVP inhalation, animals 19-24"}}, "note": "“And” between values parts separate entries of the source, which are not always exact repeats. Equal entries are not always repeated.", "data": [{"smiles": "C=CN1CCCC1=O", "note": "[NVP, N-vinylpyrrolidone]", "values": [{"measurement": "GSH/GSSG ratio", "setting": "rat liver; 5 ppm", "value": "42.2 ± 18.4"}, {"measurement": "Mean GSSG concentration", "setting": "rat liver; 5 ppm", "value": "116 ± 32", "unit": "nmol/g liver"}, {"measurement": "Proportion of reduced glutathione GSH within total glutathione tGSH", "setting": "rat liver; 5 ppm", "value": "95.0% ± 1.4%"}, {"measurement": "GSH/GSSG ratio", "setting": "rat liver; 10 ppm", "value": "31.2 ± 4.6"}, {"measurement": "Mean GSSG concentration", "setting": "rat liver; 10 ppm", "value": "135 ± 12", "unit": "nmol/g liver"}, {"measurement": "Proportion of reduced glutathione GSH within total glutathione tGSH", "setting": "rat liver; 10 ppm", "value": "93.9% ± 0.8%"}, {"measurement": "GSH/GSSG ratio", "setting": "rat liver; 20 ppm", "value": "30.0 ± 4.6"}, {"measurement": "Mean GSSG concentration", "setting": "rat liver; 20 ppm", "value": "136 ± 22", "unit": "nmol/g liver"}, {"measurement": "Proportion of reduced glutathione GSH within total glutathione tGSH", "setting": "rat liver; 20 ppm", "value": "93.6% ± 0.9%"}, {"measurement": "GSH concentration (GSH recycling assay), range", "setting": "rat liver; NVP-exposed male rats, 5-20 ppm", "value": "3.06–5.48 µmol/g liver"}, {"measurement": "GSH (GSH recycling assay), individual animal", "setting": "rat liver; [5]", "value": "3.84 µmol/g liver and 5.48 µmol/g liver and 4.63 µmol/g liver and 3.93 µmol/g liver and 5.04 µmol/g liver and 4.00 µmol/g liver"}, {"measurement": "GSSG, individual animal", "setting": "rat liver; [5]", "value": "133 nmol/g liver and 71 nmol/g liver and 144 nmol/g liver and 114 nmol/g liver and 149 nmol/g liver and 87 nmol/g liver"}, {"measurement": "tGSH, individual animal", "setting": "rat liver; [5]", "value": "4.10 µmol/g liver and 5.63 µmol/g liver and 4.92 µmol/g liver and 4.16 µmol/g liver and 5.33 µmol/g liver and 4.17 µmol/g liver"}, {"measurement": "GSH (GSH recycling assay), group (mean ± SD)", "setting": "rat liver; 5 ppm NVP inhalation", "value": "4.49 ± 0.68", "unit": "µmol/g liver"}, {"measurement": "GSSG, group (mean ± SD)", "setting": "rat liver; 5 ppm NVP inhalation", "value": "116 ± 32", "unit": "nmol/g liver"}, {"measurement": "tGSH, group (mean ± SD)", "setting": "rat liver; 5 ppm NVP inhalation", "value": "4.72 ± 0.67", "unit": "µmol/g liver"}, {"measurement": "GSH (GSH recycling assay), individual animal", "setting": "rat liver; [6]", "value": "3.44 µmol/g liver and 3.95 µmol/g liver and 4.70 µmol/g liver and 4.98 µmol/g liver and 4.41 µmol/g liver and 3.65 µmol/g liver"}, {"measurement": "GSSG, individual animal", "setting": "rat liver; [6]", "value": "132 nmol/g liver and 120 nmol/g liver and 151 nmol/g liver and 147 nmol/g liver and 126 nmol/g liver"}, {"measurement": "tGSH, individual animal", "setting": "rat liver; [6]", "value": "3.70 µmol/g liver and 4.21 µmol/g liver and 4.94 µmol/g liver and 5.28 µmol/g liver and 4.70 µmol/g liver and 3.91 µmol/g liver"}, {"measurement": "GSH (GSH recycling assay), group (mean ± SD)", "setting": "rat liver; 10 ppm NVP inhalation", "value": "4.19 ± 0.61", "unit": "µmol/g liver"}, {"measurement": "GSSG, group (mean ± SD)", "setting": "rat liver; 10 ppm NVP inhalation", "value": "135 ± 12", "unit": "nmol/g liver"}, {"measurement": "tGSH, group (mean ± SD)", "setting": "rat liver; 10 ppm NVP inhalation", "value": "4.46 ± 0.62", "unit": "µmol/g liver"}, {"measurement": "GSH (GSH recycling assay), individual animal", "setting": "rat liver; [7]", "value": "4.45 µmol/g liver and 4.57 µmol/g liver and 3.06 µmol/g liver and 3.48 µmol/g liver and 4.31 µmol/g liver and 4.35 µmol/g liver"}, {"measurement": "GSSG, individual animal", "setting": "rat liver; [7]", "value": "151 nmol/g liver and 130 nmol/g liver and 106 nmol/g liver and 142 nmol/g liver and 121 nmol/g liver and 167 nmol/g liver"}, {"measurement": "tGSH, individual animal", "setting": "rat liver; [7]", "value": "4.75 µmol/g liver and 4.83 µmol/g liver and 3.27 µmol/g liver and 3.77 µmol/g liver and 4.55 µmol/g liver and 4.68 µmol/g liver"}, {"measurement": "GSH (GSH recycling assay), group (mean ± SD)", "setting": "rat liver; 20 ppm NVP inhalation", "value": "4.04 ± 0.62", "unit": "µmol/g liver"}, {"measurement": "GSSG, group (mean ± SD)", "setting": "rat liver; 20 ppm NVP inhalation", "value": "136 ± 22", "unit": "nmol/g liver"}, {"measurement": "Mammalian cell mutation tests (HGPRT and TK locus) result", "setting": "[1]", "value": "negative"}, {"measurement": "Micronucleus test result", "setting": "mice [2]", "value": "negative"}, {"measurement": "Effect on estrogen receptor α", "setting": "estrogen receptor α", "value": "activates"}, {"measurement": "EROD activity in lung microsomes", "setting": "CYP1A", "value": "< 1.6", "unit": "pmol/min/mg protein"}, {"measurement": "Concentration at which erythrocytes, hematocrit and hemoglobin were reduced", "setting": "mice [3]", "value": 15, "unit": "ppm"}, {"measurement": "LOAEC, liver (increased gamma-glutamyl transpeptidase and glutathione)", "setting": "mice [3]", "value": 10, "unit": "ppm"}, {"measurement": "LOAEC, nasal mucosa (inflammation, olfactory epithelium atrophy, basal cell hyperplasia)", "setting": "mice [3]", "value": 5, "unit": "ppm"}, {"measurement": "Active in vitro assays in ToxCast", "setting": "[4]", "value": "10 out of 847"}, {"measurement": "Individual viability (%)", "setting": "rat lung cells; female, Comet with FPG (Table 11), 20 ppm inhalation", "value": 95, "unit": "%"}, {"measurement": "Individual viability (%)", "setting": "rat lung cells; female, no FPG, 20 ppm inhalation", "value": 96, "unit": "%"}, {"measurement": "Individual viability (%)", "setting": "rat lung cells; male, Comet with FPG (Table 10), 10 ppm inhalation", "value": 93, "unit": "%"}, {"measurement": "Individual viability (%)", "setting": "rat lung cells; male, no FPG, 10 ppm inhalation", "value": 93, "unit": "%"}]}]}
